Counter-ions that a name gives are not always drawn.
Assays:
Assay type in all cases: biochemical
[1] = molecular target: T1, recombinant human DAO (diamine oxidase) (Homo sapiens, UniProt P19801); experiment: Activity evaluation on recombinant human DAO (Amplex Red/HRP-coupled assay, 1 mM putrescine substrate); settings: 1 mM putrescine substrate, read-out: Inhibitory Activity (IC50, nM) DAO
T1 construct: purchased R&D systems
T1 sequence (P19801 20-751): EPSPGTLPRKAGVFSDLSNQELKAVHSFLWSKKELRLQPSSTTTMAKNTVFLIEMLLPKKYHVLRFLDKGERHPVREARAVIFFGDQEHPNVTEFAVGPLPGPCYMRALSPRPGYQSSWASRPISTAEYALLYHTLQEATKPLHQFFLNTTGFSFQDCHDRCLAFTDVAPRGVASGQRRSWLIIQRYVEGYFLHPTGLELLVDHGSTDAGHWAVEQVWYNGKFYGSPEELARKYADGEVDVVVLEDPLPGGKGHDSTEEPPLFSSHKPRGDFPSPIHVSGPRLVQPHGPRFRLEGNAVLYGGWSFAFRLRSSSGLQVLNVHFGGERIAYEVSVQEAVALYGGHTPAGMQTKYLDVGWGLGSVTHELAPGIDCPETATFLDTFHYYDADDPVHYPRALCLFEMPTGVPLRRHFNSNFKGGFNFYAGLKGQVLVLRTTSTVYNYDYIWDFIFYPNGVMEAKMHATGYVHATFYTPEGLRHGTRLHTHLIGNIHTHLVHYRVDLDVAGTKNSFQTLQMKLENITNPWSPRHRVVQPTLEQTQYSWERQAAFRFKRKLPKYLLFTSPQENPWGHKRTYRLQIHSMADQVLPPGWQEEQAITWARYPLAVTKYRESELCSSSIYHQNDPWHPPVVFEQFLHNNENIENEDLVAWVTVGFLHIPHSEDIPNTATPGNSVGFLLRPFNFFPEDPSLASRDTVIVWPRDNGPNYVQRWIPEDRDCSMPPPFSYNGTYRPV
How it was run: (§1)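 Each oxidase is tested with its own substrate: MAO-A with 0.5 mM tyramine, MAO-B with 1 mM benzylamine, DAO with 1 mM putrescine. After 30 min enzyme-compound preincubation at 37 °C, Amplex Red (200 uM) plus HRP (1 U/mL) reports H2O2 as fluorescence; IC50 is fitted from eight-point curves.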

[2] = molecular target: T2, recombinant human MAO-B (monoamine oxidase-B) (Homo sapiens, UniProt P27338); experiment: Activity evaluation on recombinant human MAO-B (Amplex Red/HRP-coupled assay, 1 mM benzylamine substrate); settings: 1 mM benzylamine substrate, read-out: Inhibitory Activity (IC50, nM) MAO-B
T2 construct: purchased Sigma-Aldrich
T2 sequence (P27338 1-520): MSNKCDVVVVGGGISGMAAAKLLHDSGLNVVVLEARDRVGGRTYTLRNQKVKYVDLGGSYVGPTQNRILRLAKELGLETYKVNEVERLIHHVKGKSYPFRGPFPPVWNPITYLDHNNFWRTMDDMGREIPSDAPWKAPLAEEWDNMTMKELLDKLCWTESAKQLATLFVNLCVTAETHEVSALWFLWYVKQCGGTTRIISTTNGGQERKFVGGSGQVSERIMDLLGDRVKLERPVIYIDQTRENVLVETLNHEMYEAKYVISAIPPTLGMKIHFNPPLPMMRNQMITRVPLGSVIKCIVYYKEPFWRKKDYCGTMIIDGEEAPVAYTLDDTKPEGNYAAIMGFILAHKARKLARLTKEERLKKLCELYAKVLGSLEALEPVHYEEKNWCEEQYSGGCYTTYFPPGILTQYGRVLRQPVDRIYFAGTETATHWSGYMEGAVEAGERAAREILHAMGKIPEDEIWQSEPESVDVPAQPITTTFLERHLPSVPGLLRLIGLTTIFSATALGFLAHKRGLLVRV
How it was run: as §1

[3] = molecular target: T3, recombinant human MAO-A (monoamine oxidase-A) (Homo sapiens, UniProt P21397); experiment: Activity evaluation on recombinant human MAO-A (Amplex Red/HRP-coupled assay, 0.5 mM tyramine substrate); settings: 0.5 mM tyramine substrate, read-out: Inhibitory Activity (IC50, nM) MAO-A
T3 construct: purchased Sigma-Aldrich
T3 sequence (P21397 1-527): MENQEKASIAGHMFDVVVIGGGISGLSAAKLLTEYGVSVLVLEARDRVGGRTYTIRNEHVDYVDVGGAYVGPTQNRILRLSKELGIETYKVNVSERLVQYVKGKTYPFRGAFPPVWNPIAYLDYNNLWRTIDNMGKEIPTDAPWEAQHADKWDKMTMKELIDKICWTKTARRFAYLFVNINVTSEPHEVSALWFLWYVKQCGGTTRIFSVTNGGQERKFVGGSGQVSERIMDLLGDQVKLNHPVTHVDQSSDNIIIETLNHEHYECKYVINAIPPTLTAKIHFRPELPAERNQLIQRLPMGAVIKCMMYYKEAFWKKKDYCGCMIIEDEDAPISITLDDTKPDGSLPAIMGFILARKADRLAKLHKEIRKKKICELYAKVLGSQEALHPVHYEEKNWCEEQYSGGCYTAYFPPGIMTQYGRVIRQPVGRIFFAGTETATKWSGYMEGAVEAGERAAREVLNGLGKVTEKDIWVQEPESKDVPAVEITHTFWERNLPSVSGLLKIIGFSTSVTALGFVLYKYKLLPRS
How it was run: as §1

[4] = molecular target: T4, recombinant human VAP-1 (Homo sapiens, UniProt Q16853); experiment: Activity evaluation on recombinant human VAP-1 (Amplex Red/HRP-coupled hydrogen peroxide assay, benzylamine substrate); settings: recombinant human VAP-1, benzylamine substrate; read-out: Inhibitory Activity (IC50, nM) human VAP-1
T4 construct: purchased R&D systems
T4 sequence (Q16853 1-763): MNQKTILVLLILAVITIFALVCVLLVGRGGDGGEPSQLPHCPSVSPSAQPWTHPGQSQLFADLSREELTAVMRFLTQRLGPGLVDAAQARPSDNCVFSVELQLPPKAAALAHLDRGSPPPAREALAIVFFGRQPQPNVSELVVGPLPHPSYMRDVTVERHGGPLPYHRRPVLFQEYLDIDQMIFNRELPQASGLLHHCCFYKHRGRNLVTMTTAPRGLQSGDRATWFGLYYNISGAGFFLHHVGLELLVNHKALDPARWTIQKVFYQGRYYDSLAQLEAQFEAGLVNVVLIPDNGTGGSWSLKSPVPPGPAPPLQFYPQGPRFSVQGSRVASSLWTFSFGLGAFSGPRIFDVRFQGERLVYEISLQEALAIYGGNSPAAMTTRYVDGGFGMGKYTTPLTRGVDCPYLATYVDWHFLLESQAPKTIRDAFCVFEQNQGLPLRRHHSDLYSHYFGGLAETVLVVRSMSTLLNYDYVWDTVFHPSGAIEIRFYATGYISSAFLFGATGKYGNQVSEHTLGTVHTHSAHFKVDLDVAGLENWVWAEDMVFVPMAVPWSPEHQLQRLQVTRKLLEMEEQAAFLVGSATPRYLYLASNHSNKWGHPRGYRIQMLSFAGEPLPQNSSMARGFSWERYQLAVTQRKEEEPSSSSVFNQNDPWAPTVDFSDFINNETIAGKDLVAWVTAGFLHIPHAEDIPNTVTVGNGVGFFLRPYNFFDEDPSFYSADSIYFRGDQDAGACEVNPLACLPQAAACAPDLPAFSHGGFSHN
How it was run: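 Hydrogen peroxide from benzylamine (1 mM) oxidation by human recombinant VAP-1 detected via HRP-coupled Amplex Red (200 uM) fluorescence, kinetic over 1–2 h. Enzyme and compound preincubated 30 min at 37 °C, pH 7.4 phosphate; 8-point dose response, signal-rate decrease versus DMSO control fitted to four-parameter logistic for IC50.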

| IC50 [1] | IC50 [2] | IC50 [3] | IC50 [4] | Structure (SMILES) |
| --- | --- | --- | --- | --- |
| 880 nM | 23000 nM | > 100000 nM | 4.6 nM | NCC(Cn1ncn(Cc2cc3ccc(-c4ccc(N5CCNCC5)cc4)cc3s2)c1=O)=C(F)F [Example 198, 2-[2-(aminomethyl)-3,3-difluoro-allyl]-4-[[6-(4-piperazin-1-ylphenyl)benzothiophen-2-yl]methyl]-1,2,4-triazol-3-one Ditrifluoroacetate] |
| 15000 nM | 1100 nM | > 100000 nM | 1.7 nM | NCC(Cn1ncn(Cc2cc3ccc(-c4ccc(C(F)(F)F)nc4)cc3s2)c1=O)=C(F)F [Example 199, 2-[2-(aminomethyl)-3,3-difluoro-allyl]-4-[[6-[6-(trifluoromethyl)-3-pyridyl]benzothiophen-2-yl]methyl]-1,2,4-triazol-3-one Trifluoroacetate] |
| > 100000 nM | 740 nM | > 100000 nM | 1.9 nM | CN(C)c1ccc(-c2ccc3cc(Cn4cnn(CC(CN)=C(F)F)c4=O)sc3c2)cn1 [Example 200, 2-[2-(aminomethyl)-3,3-difluoro-allyl]-4-[[6-[6-(dimethylamino)-3-pyridyl]benzothiophen-2-yl]methyl]-1,2,4-triazol-3-one Trifluoroacetate] |
| 27000 nM | 2000 nM | 90800 nM | 2.8 nM | NCC(Cn1ncn(Cc2cc3ccc(-c4ccc5c(c4)OCO5)cc3s2)c1=O)=C(F)F [Example 201, 2-[2-(aminomethyl)-3,3-difluoro-allyl]-4-[[6-(1,3-benzodioxol-5-yl)benzothiophen-2-yl]methyl]-1,2,4-triazol-3-one Trifluoroacetate] |
| 5600 nM | > 100000 nM | > 100000 nM | 2 nM | Cc1cc(-c2ccc3cc(Cn4cnn(CC(CN)=C(F)F)c4=O)sc3c2)cc2c1NC(=O)CC2 [Example 202, 6-[2-[[1-[2-(aminomethyl)-3,3-difluoro-allyl]-5-oxo-1,2,4-triazol-4-yl]methyl]benzothiophen-6-yl]-8-methyl-3,4-dihydro-1H-quinolin-2-one Trifluoroacetate] |
| 4000 nM | 780 nM | > 100000 nM | 1.5 nM | CN1C(=O)CCc2cc(-c3ccc4cc(Cn5cnn(CC(CN)=C(F)F)c5=O)sc4c3)ccc21 [Example 203, 6-[2-[[1-[2-(aminomethyl)-3,3-difluoro-allyl]-5-oxo-1,2,4-triazol-4-yl]methyl]benzothiophen-6-yl]-1-methyl-3,4-dihydroquinolin-2-one Trifluoroacetate] |
| 41200 nM | 89900 nM | > 100000 nM | 0.5 nM | CCn1cc(-c2ccc3cc(Cn4cnn(CC(CN)=C(F)F)c4=O)sc3c2)cn1 [Example 204, 2-[2-(aminomethyl)-3,3-difluoro-allyl]-4-[[6-(1-ethylpyrazol-4-yl)benzothiophen-2-yl]methyl]-1,2,4-triazol-3-one Trifluoroacetate] |
| 7670 nM | > 100000 nM | > 100000 nM | 0.8 nM | CS(=O)(=O)c1ccc(-c2ccc3sc(Cn4cnn(CC(CN)=C(F)F)c4=O)cc3c2)cc1 [Example 205, 2-[2-(aminomethyl)-3,3-difluoro-allyl]-4-[[5-(4-methylsulfonylphenyl)benzothiophen-2-yl]methyl]-1,2,4-triazol-3-one Trifluoroacetate] |
| 639 nM | 14600 nM | > 100000 nM | 2.3 nM | NCC(Cn1ncn(Cc2cc3cc(-c4ccc(N5CCNCC5)cc4)ccc3s2)c1=O)=C(F)F [Example 206, 2-[2-(aminomethyl)-3,3-difluoro-allyl]-4-[[5-(4-piperazin-1-ylphenyl)benzothiophen-2-yl]methyl]-1,2,4-triazol-3-one Ditrifluoroacetate] |
| > 100000 nM | > 100000 nM | > 100000 nM | 0.7 nM | CCn1cc(-c2ccc3sc(Cn4cnn(CC(CN)=C(F)F)c4=O)cc3c2)ccc1=O [Example 207, 5-[2-[[1-[2-(aminomethyl)-3,3-difluoro-allyl]-5-oxo-1,2,4-triazol-4-yl]methyl]benzothiophen-5-yl]-1-ethyl-pyridin-2-one Trifluoroacetate] |
| > 100000 nM | 42400 nM | 89900 nM | 2.5 nM | CN(C)c1ccc(-c2ccc3sc(Cn4cnn(CC(CN)=C(F)F)c4=O)cc3c2)cn1 [Example 208, 2-[2-(aminomethyl)-3,3-difluoro-allyl]-4-[[5-[6-(dimethylamino)-3-pyridyl]benzothiophen-2-yl]methyl]-1,2,4-triazol-3-one Trifluoroacetate] |
| 93700 nM | 5180 nM | > 100000 nM | 4.3 nM | NCC(Cn1ncn(Cc2cc3cc(-c4ccc5c(c4)OCO5)ccc3s2)c1=O)=C(F)F [Example 209, 2-[2-(aminomethyl)-3,3-difluoro-allyl]-4-[[5-(1,3-benzodioxol-5-yl)benzothiophen-2-yl]methyl]-1,2,4-triazol-3-one Trifluoroacetate] |

— patent publication US11168073B2, “3,3-difluoroallylamines or salts thereof and pharmaceutical compositions comprising the same” (YUHAN CORPORATION, priority 2018, dated 2021)
